# Laboratory results from patent EP4745138A1, “THIO-GLUTARIMIDO ISOINDOLINONE DERIVATIVE, BIFUNCTIONAL PROTEIN DEGRADER CONTAINING SAME, AND USES THEREOF” (Gluetacs Therapeutics (Shanghai) Co., Ltd., priority 2023, dated 2025).
# Where two headings read alike, the source gives them in different places.
# Columns and labels:
# [1] = system: MM.1S; assay: Tumor cell proliferation inhibition (CellTiter-Meiluncell Luminescent Cell Viability Assay); format: cell-based; details: Homo sapiens, MM1.S, MM.1S, 96 hours; for inhibition at 0.01 µM: 10 nM, read-out: Inhibition Rate at 10 nM (%); for inhibition at 0.5 µM: 500 nM, read-out: Inhibition Rate at 500 nM (%)
# How it was run: (§1)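 Following overnight seeding, tumor cells received serial compound dilutions to final levels that included 10 nM and 500 nM. Viability was assessed by luminescence at the end of the specified exposure time. Cultures were kept at 37°C with 5% CO2.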
# [2] = target: T1, BRG1 (Homo sapiens, UniProt P51532); assay: Western blot, target protein degradation in Molt-4 Cell; format: cell-based; details: substrate protein remaining %, treated at 500 nM and 50 nM, 24 hours
# T1 construct: endogenous in cells; host or cells: Molt-4
# Procedure: (§2) Conventional Western blot assay was performed to evaluate the effects of the compounds of the present disclosure on the expression of target proteins in cells.
# (§3) (1) Cell Seeding and Protein Harvesting: The selected cells were processed according to the cell seeding procedure and protein harvesting procedure in Table II-2. Table II-2 Cell Seeding and Protein Harvesting Procedures
# (§4) (2) To the collected supernatant, 5X SDS sample loading buffer was added, followed by denaturation at 95°C for 5 minutes. The denatured samples were then separated by SDS-PAGE electrophoresis on a polyacrylamide gel. Proteins were transferred to a nitrocellulose membrane (0.45 µm NC membrane), blocked with blocking buffer at room temperature for 1 hour, and subjected to antibody incubation and development procedures according to the antibody manufacturer's instructions (Cell Signaling Technology).
# (§5) Half-Maximal Degradation Concentration value (the drug concentration required for degrading proteins by 50%, abbreviated as DC50) reads method: comparing the grayscale values of Western blot bands from drug-treated samples with those from blank DMSO-treated controls, and identifying the drug concentration range at which the grayscale value is half that of the DMSO-treated control bands.
# (§6) DC50 values can be calculated using ImageJ software to measure grayscale values of Western blot bands from drug-treated samples. […]
# [3] = target: T2, BRM (Homo sapiens, UniProt P51531); assay: as above; format: cell-based; details: substrate protein remaining %, treated at 500 nM and 50 nM, 24 hours
# T2 construct: endogenous in cells; host or cells: Molt-4
# Procedure: as §2, §3, §4, §5, §6
# [4] = target: T3, human Cereblon WT GST-tagged protein (Homo sapiens, UniProt Q96SW2); assay: CRBN-binding affinity, HTRF (CEREBLON BINDING kit); details: for inhibition at 0.5 µM: read-out: Inhibition Rate at 0.5 µM (%); for inhibition at 2 µM: read-out: Inhibition Rate at 2 µM (%)
# T3 construct: purchased CISBIO 64BDCRBNPEH
# How it was run: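 Competitive HTRF binding: compounds diluted in diluent #9 incubated with GST-tagged wild-type human Cereblon, thalidomide-Red tracer and anti-GST Eu antibody. Final compound concentrations 2 µM and 0.5 µM.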
# [5] = system: JEKO-1; assay: Tumor cell proliferation inhibition (CellTiter-Meiluncell Luminescent Cell Viability Assay); format: cell-based; details: Homo sapiens, 96 hours; for inhibition at 0.01 µM: 10 nM, read-out: Inhibition Rate at 10 nM (%); for inhibition at 0.5 µM: 500 nM, read-out: Inhibition Rate at 500 nM (%)
# How it was run: as §1
# [6] = system: MV-4-11; assay: as above; format: cell-based; details: Homo sapiens, 96 hours; for inhibition at 0.01 µM: MV4-11, 10 nM, read-out: Inhibition Rate at 10 nM (%); for inhibition at 0.5 µM: MV4-11, 500 nM, read-out: Inhibition Rate at 500 nM (%)
# How it was run: as §1
# [7] = target: T4, CDK2 (Homo sapiens, UniProt P24941); assay: Western blot, target protein degradation in hPBMC Cell; format: cell-based; details: treated at 50 nM and 500 nM, 24 hours
# T4 construct: the expression of target proteins in cells; endogenous in cells; host or cells: hPBMC
# Procedure: as §2, §3, §4, §5
# (§7) DC50 values can be calculated using ImageJ software to measure grayscale values of Western blot bands from drug-treated samples. The concentration-response curve is fitted to estimate the drug concentration corresponding to half the grayscale value.
# (§8) Target protein remaining (%) refers to the percentage of target protein remaining in cells after treatment with protein degrader compounds.
# (§9) Calculation method for target protein remaining (%): Use ImageJ software to measure grayscale values of Western blot bands from drug (protein degrader)-treated samples. The grayscale value of drug-treated bands is divided by that of internal control protein bands, and the resulting quotient is normalized to obtain the relative percentage of remaining target protein after protein degrader treatment. Target protein degradation rate(%) = 1−target protein remaining(%). [formula]
# [8] = system: SW620; assay: Tumor cell proliferation inhibition (CellTiter-Meiluncell Luminescent Cell Viability Assay); format: cell-based; details: Homo sapiens, 96 hours, Table I-6, IRAK4 inhibitors
# How it was run: as §1
# [9] = target: T5, IRAK4 (Homo sapiens, UniProt Q9NWZ3); assay: Western blot, target protein degradation in hPBMC Cell; format: cell-based; details: substrate protein remaining %, treated at 50 nM and 500 nM, 24 hours
# T5 construct: endogenous in cells; host or cells: hPBMC
# Procedure: as §2, §3, §4, §5, §7, §8, §9
# [10] = system: Jurkat; assay: Tumor cell proliferation inhibition (CellTiter-Meiluncell Luminescent Cell Viability Assay); details: Homo sapiens, 96 hours, Table I-5, designed based on the IRAK4 inhibitors, read-out: Inhibitory activity (IC50, nM) Jurkat
# Procedure: The tumor cells used herein were cultured in a cell culture medium listed in table 3 at 37°C in an incubator with 5% CO2. Prior to experimentation, all cell lines used were correctly identified by STR profiling, and tested negative for mycoplasma contamination using a mycoplasma detection kit through routine screenings. Table 3. Tumor cells and cell culture medium used in the present disclosure
# The IC50 values of the compounds of the present disclosure (including the compounds in Table 1, Table 2, and Examples) were determined using the CellTiter-Meiluncell Luminescent Cell Viability Assay Kit from Dalian Meilun Biotech Co., Ltd. The detailed procedure is as follows: Tumor cells were seeded in 96-well cell culture plates at the densities specified in Table 4. On the following day, the test compounds of the present disclosure were subjected to serial dilution. […] Subsequently, 0.5 µL of the test compound dilution was transferred into the 96-well plate containing the cells, with each well containing 100 µL of cell culture medium. […] Into the 96-well plate, the diluted test compounds and corresponding detection reagents were added, resulting in final test compound concentrations of 500 nM and 10 nM, respectively. The experimental procedure is described below using the diluted 2 µM test compound as an example.
# 0.5 µL of the aforementioned diluted compound of the present disclosure (including the compounds in Table 1, Table 2, and Examples) was added to the seeded cells in 100 µL of medium, yielding a final test compound concentration of 10 nM. After the cells were treated with the compounds of the present disclosure for a specified period, the cell viability assay reagent was added to the culture medium according to the kit's instructions to determine cell viability. […] All controls were treated using the same procedure as the compounds of the present disclosure. […] Seeding protocol and treatment time for tumor cells
# [11] = Table I-8, SMARCA2/4 inhibitors
# T3 sequence (Q96SW2 whole entry): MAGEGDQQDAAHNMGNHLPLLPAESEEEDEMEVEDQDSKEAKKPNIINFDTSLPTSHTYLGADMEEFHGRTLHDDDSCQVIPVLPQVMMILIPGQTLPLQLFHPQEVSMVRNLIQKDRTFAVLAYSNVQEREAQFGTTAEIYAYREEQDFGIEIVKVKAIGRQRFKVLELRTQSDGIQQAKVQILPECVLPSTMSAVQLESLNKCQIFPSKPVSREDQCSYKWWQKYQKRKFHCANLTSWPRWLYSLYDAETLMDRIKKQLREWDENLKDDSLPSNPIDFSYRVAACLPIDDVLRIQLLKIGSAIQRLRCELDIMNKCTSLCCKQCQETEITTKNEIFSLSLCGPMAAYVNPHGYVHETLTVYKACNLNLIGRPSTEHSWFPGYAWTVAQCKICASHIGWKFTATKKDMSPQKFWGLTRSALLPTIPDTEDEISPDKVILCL
# T5 sequence (Q9NWZ3 whole entry): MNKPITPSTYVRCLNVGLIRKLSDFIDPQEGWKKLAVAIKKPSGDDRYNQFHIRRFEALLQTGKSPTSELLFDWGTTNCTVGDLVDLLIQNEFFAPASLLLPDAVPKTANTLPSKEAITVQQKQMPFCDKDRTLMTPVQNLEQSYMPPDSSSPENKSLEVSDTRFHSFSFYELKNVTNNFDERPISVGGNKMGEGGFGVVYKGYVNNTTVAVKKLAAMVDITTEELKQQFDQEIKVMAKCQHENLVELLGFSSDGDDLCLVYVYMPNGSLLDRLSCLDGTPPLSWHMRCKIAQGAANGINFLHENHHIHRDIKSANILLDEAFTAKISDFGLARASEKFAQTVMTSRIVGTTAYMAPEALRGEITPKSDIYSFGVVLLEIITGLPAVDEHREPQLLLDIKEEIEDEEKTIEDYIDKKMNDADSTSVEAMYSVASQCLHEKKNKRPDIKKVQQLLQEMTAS
# T1 sequence (P51532 whole entry): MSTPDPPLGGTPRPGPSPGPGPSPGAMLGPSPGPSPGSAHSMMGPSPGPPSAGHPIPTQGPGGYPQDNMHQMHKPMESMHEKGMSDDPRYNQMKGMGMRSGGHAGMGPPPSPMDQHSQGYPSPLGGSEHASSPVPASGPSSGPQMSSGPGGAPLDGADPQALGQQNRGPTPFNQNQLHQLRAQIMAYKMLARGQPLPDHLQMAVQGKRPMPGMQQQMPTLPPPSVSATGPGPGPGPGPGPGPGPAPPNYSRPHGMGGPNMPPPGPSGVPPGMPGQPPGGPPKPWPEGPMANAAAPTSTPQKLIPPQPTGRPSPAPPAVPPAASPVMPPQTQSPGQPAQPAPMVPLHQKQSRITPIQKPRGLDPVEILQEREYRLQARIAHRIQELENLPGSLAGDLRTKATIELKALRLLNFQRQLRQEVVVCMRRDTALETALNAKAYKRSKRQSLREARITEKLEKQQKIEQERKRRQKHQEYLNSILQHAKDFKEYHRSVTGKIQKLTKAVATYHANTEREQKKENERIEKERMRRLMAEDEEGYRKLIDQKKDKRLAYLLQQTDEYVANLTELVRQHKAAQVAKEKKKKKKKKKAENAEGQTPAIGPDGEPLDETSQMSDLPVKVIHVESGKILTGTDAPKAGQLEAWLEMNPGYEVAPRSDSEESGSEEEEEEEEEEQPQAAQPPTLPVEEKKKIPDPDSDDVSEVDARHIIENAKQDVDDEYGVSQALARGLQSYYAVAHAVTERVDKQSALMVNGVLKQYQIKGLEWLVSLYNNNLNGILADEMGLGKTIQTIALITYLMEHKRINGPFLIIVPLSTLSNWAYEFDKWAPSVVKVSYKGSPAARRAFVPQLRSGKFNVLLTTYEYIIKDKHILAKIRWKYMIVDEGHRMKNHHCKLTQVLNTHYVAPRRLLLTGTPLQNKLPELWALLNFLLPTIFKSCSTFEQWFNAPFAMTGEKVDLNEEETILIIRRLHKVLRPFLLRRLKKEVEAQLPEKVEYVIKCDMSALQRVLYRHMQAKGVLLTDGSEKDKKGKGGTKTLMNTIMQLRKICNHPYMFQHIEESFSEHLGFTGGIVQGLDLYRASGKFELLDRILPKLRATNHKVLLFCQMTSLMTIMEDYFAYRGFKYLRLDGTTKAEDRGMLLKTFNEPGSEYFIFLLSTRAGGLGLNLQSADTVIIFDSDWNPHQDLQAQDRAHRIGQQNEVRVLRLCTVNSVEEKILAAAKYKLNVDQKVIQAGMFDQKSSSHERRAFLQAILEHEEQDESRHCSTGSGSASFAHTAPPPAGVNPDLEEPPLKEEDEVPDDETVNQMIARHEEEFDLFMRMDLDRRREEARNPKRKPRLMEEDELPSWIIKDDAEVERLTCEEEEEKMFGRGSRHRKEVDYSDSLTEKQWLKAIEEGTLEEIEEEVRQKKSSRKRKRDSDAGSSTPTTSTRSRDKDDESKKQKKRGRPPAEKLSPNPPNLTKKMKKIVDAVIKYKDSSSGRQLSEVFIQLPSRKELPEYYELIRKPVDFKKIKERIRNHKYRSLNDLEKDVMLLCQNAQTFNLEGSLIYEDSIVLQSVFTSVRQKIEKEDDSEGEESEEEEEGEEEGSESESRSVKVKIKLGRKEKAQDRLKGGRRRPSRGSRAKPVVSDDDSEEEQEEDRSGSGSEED
# T2 sequence (P51531 whole entry): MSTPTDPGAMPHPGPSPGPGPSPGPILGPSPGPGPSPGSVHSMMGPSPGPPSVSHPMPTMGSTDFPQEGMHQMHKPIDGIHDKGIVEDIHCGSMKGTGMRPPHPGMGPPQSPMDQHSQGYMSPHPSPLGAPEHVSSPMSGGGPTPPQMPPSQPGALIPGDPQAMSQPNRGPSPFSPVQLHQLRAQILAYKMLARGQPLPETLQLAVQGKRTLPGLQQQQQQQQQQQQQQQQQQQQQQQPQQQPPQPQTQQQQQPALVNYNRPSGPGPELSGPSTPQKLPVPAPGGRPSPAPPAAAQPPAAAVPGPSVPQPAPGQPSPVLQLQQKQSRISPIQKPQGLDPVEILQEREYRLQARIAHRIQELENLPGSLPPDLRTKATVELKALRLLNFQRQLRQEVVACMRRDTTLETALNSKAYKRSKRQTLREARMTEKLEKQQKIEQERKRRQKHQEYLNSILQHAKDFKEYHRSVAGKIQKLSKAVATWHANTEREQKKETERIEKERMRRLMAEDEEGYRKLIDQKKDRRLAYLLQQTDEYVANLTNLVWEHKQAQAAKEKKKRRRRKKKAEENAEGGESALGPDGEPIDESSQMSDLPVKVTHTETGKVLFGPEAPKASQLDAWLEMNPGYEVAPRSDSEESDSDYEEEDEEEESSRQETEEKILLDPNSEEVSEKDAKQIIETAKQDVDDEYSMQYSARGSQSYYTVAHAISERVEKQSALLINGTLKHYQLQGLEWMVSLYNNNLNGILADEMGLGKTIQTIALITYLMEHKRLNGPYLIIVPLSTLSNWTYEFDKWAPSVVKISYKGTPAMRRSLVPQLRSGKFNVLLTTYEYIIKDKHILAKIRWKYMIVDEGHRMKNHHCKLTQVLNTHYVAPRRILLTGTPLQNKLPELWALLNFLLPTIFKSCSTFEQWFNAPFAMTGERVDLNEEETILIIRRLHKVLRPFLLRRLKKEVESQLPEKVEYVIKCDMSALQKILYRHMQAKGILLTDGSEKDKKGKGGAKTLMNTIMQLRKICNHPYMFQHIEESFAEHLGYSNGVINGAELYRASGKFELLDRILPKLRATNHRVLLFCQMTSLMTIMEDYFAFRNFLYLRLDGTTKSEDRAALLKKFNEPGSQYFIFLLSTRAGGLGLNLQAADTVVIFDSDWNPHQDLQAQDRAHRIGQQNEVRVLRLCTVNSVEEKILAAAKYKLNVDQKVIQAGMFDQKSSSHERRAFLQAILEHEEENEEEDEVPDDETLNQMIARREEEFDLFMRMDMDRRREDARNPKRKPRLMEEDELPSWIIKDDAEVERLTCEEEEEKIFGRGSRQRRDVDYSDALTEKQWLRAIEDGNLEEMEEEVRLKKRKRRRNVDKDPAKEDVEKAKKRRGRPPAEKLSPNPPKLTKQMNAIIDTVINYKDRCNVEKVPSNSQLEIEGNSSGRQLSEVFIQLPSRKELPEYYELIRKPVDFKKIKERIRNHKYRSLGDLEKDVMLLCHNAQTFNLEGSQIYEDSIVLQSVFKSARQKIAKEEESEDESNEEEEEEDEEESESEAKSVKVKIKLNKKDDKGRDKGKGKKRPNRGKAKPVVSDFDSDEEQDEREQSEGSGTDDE
inhibition at 0.5 µM [4] [%],inhibition at 2 µM [4] [%],Degradation of substrate protein CDK2 [7],Structure (SMILES),"inhibition at 0.01 µM ([1]; Table I-13, CDK2 inhibitors) [%]","inhibition at 0.5 µM ([1]; Table I-13, CDK2 inhibitors) [%]","inhibition at 0.01 µM ([6]; Table I-13, CDK2 inhibitors) [%]","inhibition at 0.5 µM ([6]; Table I-13, CDK2 inhibitors) [%]",Degradation of substrate protein IRAK4 [9],other results
60 to 80,80 to 100,,"Nc1nnc(-c2ccccc2O)cc1N1CCN(Cc2ccc3c(c2)C(=S)N(C2CCC(=O)NC2=O)C3)CC1 (stereo not shown) [GT-08787, 3-(6-((4-(3-amino-6-(2-hydroxyphenyl)pyridazin-4-yl)piperazin-1-yl)methyl)-1-thioxoisoindolin-2-yl)piperidine-2,6-dione]",,,,,,"inhibition at 0.01 µM [1, 11]: 30 to 40%; inhibition at 0.5 µM [1, 11]: 40 to 50%; Degradation of substrate protein BRG1 [2]: A (0% ≤ substrate protein remaining % ≤ 80%); Degradation of substrate protein BRM [3]: A (0% ≤ substrate protein remaining % ≤ 80%)"
53 to 60,60 to 80,Yes,"Cc1ccsc1C(=O)n1nc(Nc2ccc(S(=O)(=O)N3CCN(Cc4ccc5c(c4)C(=S)N(C4CCC(=O)NC4=O)C5)CC3)cc2)nc1N (stereo not shown) [GT-08798, 3-(6-((4-((4-((5-amino-1-(3-methylthiophene-2-carbonyl)-1H-1,2,4-triazol-3-yl)amino)phenyl)sulfony 1)piperazin-1-yl)methyl)-1-thioxoisoindolin-2-yl)piperidine-2,6-dione]",10 to 20,50 to 60,20 to 30,60 to 70,,"inhibition at 0.01 µM ([5]; Table I-13, CDK2 inhibitors): 10 to 20%; inhibition at 0.5 µM ([5]; Table I-13, CDK2 inhibitors): 60 to 70%"
60 to 80,60 to 80,Yes,"Cc1ccsc1C(=O)n1nc(Nc2ccc(S(=O)(=O)N3CCN(Cc4ccc5c(c4)CN(C4CCC(=O)NC4=O)C5=S)CC3)cc2)nc1N (stereo not shown) [GT-08792, 3-(5-((4-((4-((5-amino-1-(3-methylthiophene-2-carbonyl)-1H-1,2,4-triazol-3-yl)amino)phenyl)sulfony 1)piperazin-1-yl)methyl)-1-thioxoisoindolin-2-yl)piperidine-2,6-dione]",10 to 20,60 to 70,0 to 5,50 to 60,,
20 to 30,60 to 80,,"O=C1CCC(N2Cc3cc(CN4CCC(n5cc(NC(=O)c6coc(-c7ccnc(NCC(F)(F)F)c7)n6)c(C(F)F)n5)CC4)ccc3C2=S)C(=O)N1 (stereo not shown) [GT-05292, N-(3-(difluoromethyl)-1-(1-((2-(2,6-dioxopiperidin-3-yl)-1-thioxoisoindolin-5-yl)methyl)piperidin-4-yl)-1H-pyrazol-4-yl)-2-(2-((2,2,2-trifluoroethyl)amino)pyridin-4-yl)oxazole-4-carboxamide]",,,,,A (0% ≤ substrate protein remaining % ≤ 80%),"inhibition at 0.01 µM ([5]; Table I-6, IRAK4 inhibitors): 30 to 40%; inhibition at 0.5 µM ([5]; Table I-6, IRAK4 inhibitors): 80 to 100%; inhibition at 0.01 µM ([1]; Table I-6, IRAK4 inhibitors): 50 to 60%; inhibition at 0.5 µM ([1]; Table I-6, IRAK4 inhibitors): 80 to 100%; inhibition at 0.01 µM ([6]; Table I-6, IRAK4 inhibitors): 80 to 100%; inhibition at 0.5 µM ([6]; Table I-6, IRAK4 inhibitors): 80 to 100%; inhibition at 0.01 µM ([8]; SW-620, 10 nM, read-out: Inhibition Rate at 10 nM (%)): 70 to 80%; inhibition at 0.5 µM ([8]; SW-620, 500 nM, read-out: Inhibition Rate at 500 nM (%)): 80 to 100%"
40 to 53,60 to 80,,"COc1cc2nn(C3CCN(Cc4cccc5c4CN(C4CCC(=O)NC4=O)C5=S)CC3)cc2cc1NC(=O)c1cccc(C(F)(F)F)n1 (stereo not shown) [GT-04950, N-(2-(1-((2-(2,6-dioxopiperidin-3-yl)-1-thioxoisoindolin-4-yl)methyl)piperidin-4-yl)-6-methoxy-2H-indazol-5-yl)-6-(trifluoromethyl)picolinamide]",,,,,,"IC50 [10]: 500 to 1000 nM; IC50 ([1]; Table I-5, designed based on the IRAK4 inhibitors, read-out: Inhibitory activity (IC50, nM) MM.1S): 100 to 500 nM"
60 to 80,80 to 100,,"CC(C)(O)c1cc2nn(C3CCN(Cc4ccc5c(c4)CN(C4CCC(=O)NC4=O)C5=S)CC3)cc2cc1NC(=O)c1cccc(C(F)(F)F)n1 (stereo not shown) [GT-05297, N-(2-(1-((2-(2,6-dioxopiperidin-3-yl)-1-thioxoisoindolin-5-yl)methyl)piperidin-4-yl)-6-(2-hydroxypropan-2-yl)-2H-indazol-5-yl)-6-(trifluoromethyl)picolinamide]",,,,,A (0% ≤ substrate protein remaining % ≤ 80%),
